What was measured:
Assay type in all cases: cell-based
[1] = test system: yeast Saccharomyces cerevisiae X2180-1B; experiment: Growth of yeast in matrix of tubes of Ready to Drink tea (0.14% tea) with preservatives and essential oil component, OD 600 nm at 14 days; settings: RTD tea pH 3.4, cinnamic acid 1-175 ppm, 14 days 25° C.; for tubes supporting yeast growth compared with control without essential oil (FIG. 13): benzoic acid 1-250 ppm; for tubes supporting yeast growth compared with control without essential oil (FIG. 1): sorbic acid 1-250 ppm; for tubes supporting yeast growth compared with control without essential oil (FIG. 19): sorbic acid+benzoic acid 1:1 1-250 ppm
Method: (§1) The matrix of 30 ml tubes each contained 10 ml RTD tea, pH 3.4. […] Tubes were inoculated with 10^4 cells of the yeast Saccharomyces cerevisiae X2180-1B. Tubes were then incubated for 14 days at 25° C. to allow surviving yeasts to grow out. At 14 days growth was measured by optical density at 600 nm in x11 diluted samples, and blank values subtracted.
as §1, with “containing” for “contained”, “tea” for “tea,”, “3.4, all contained 100 ppm citral dimethyl acetal.” for “3.4.”, “were” for “were then”
as §1, with “containing” for “contained”, “tea” for “tea,”, “3.4, all contained 100 ppm cumic alcohol.” for “3.4.”, “were” for “were then”
as §1, with “containing” for “contained”, “tea” for “tea,”, “3.4, all contained 100 ppm citral.” for “3.4.”, “were” for “were then”
as §1, with “containing” for “contained”, “tea” for “tea,”, “3.4, all contained 50 ppm 3,7-dimethyl octanol.” for “3.4.”, “were” for “were then”
as §1, with “containing” for “contained”, “tea” for “tea,”, “3.4, all contained 100 ppm myrtenol.” for “3.4.”, “were” for “were then”
as §1, with “containing” for “contained”, “tea” for “tea,”, “3.4, all contained 100 ppm piperonyl acetate.” for “3.4.”, “were” for “were then”
as §1, with “containing” for “contained”, “tea” for “tea,”, “3.4, all contained 15 ppm trans, trans-2,4-decadienal.” for “3.4.”, “were” for “were then”
as §1, with “containing” for “contained”, “tea” for “tea,”, “3.4, all contained 100 ppm δ-decanolactone.” for “3.4.”, “were” for “were then”
as §1, with “containing” for “contained”, “tea” for “tea,”, “3.4, all contained 25 ppm citral dimethyl acetal and 35 ppm cumic alcohol.” for “3.4.”, “were” for “were then”
The matrix of 30 ml tubes each contained 10 ml RTD tea, pH 3.4. […]

[2] = test system: spoilage mould Aspergillus niger POL10; experiment: Growth of spoilage mould in RTD tea with preservatives and increasing citral dimethyl acetal, visual at 28 days; settings: RTD tea pH 3.1, 0.14% tea; sorbic acid 200 ppm, cinnamic acid 60 ppm, EDTA 30 ppm; 10^4 conidiaspores; 28 days 25° C.; tested 1-400 ppm
Method: Growth of spoilage mould Aspergillus niger POL10 in 30 ml tubes each contained 10 ml RTD tea, pH 3.1, 0.14% tea. All tubes containing sorbic acid 200 ppm, cinnamic acid 60 ppm, EDTA 30 ppm. An essential oil component, citral dimethyl acetal, was added in increasing concentration to tubes, in the range 1-400 ppm. Tubes were inoculated with 10^4 conidiaspores of the mould Aspergillus niger POL10. Tubes were then incubated for 28 days at 25° C. to allow moulds to grow out. At 28 days growth was measured visually. Mould growth was visible in all tubes, excepting those containing >80 ppm citral dimethyl acetal.

[3] = test system: yeast Saccharomyces cerevisiae X2180-1B; experiment: Growth of yeast in matrix of tubes of synthetic soft drink (0% tea) with preservatives and essential oil component, OD 600 nm at 14 days; settings: synthetic soft drink pH 3.4, 100 ppm essential oil component, cinnamic acid 1-175 ppm, 14 days 25° C.
Method: (§2) Synthetic soft drink contained glucose, 8%w/v, citric acid 3 g/l, potassium orthophosphate 1 g/l, magnesium chloride 0.1 g/l and yeast extract 0.1 g/l. The matrix of 30 ml tubes each contained 10 ml synthetic soft drink, pH 3.4. Sorbic acid was used in the range 1-250 ppm and cinnamic acid in the range 1-175 ppm. Tubes were inoculated with 10^4 cells of the yeast Saccharomyces cerevisiae X2180-1B. Tubes were then incubated for 14 days at 25° C. to allow surviving yeasts to grow out. At 14 days growth was measured by optical density at 600 nm in x11 diluted samples, and blank values subtracted.
as §2, with “each containing” for “each contained”, “soft drink” for “soft drink,”, “pH 3.4, all contained 100 ppm citral dimethyl acetal.” for “pH 3.4.”, “were” for “were then”
Synthetic soft drink contained glucose, 8%w/v, citric acid 3 g/l, potassium orthophosphate 1 g/l, magnesium chloride 0.1 g/l and yeast extract 0.1 g/l. The matrix of 30 ml tubes each contained 10 ml synthetic soft drink, pH 3.4. […] At 14 days growth was measured by optical density at 600 nm in x11 diluted samples, and blank values subtracted.
Synthetic soft drink contained glucose, 8%w/v, citric acid 3 g/l, potassium orthophosphate 1 g/l, magnesium chloride 0.1 g/l and yeast extract 0.1 g/l. […] At 14 days growth was measured by optical density at 600 nm in x11 diluted samples, and blank values subtracted.
Synthetic soft drink contained glucose, 8%w/v, citric acid 3 g/l, potassium orthophosphate 1 g/l, magnesium chloride 0.1 g/l and yeast extract 0.1 g/l. […] At 14 days growth was measured by optical density at 600 nm in x11 diluted samples, and blank values subtracted. […]

[4] = test system: fungi; settings: Table I, preferred essential oils
[5] = 100 ppm essential oil component

CC(C)CCCC(C)CCO (stereo not shown) [3,7-Dimethyl-1-octanol]
tubes supporting yeast growth compared with control without essential oil (FIG. 13) ([1]; 50 ppm essential oil component): very substantially fewer tubes supporting yeast growth | tubes supporting yeast growth compared with control without essential oil (FIG. 1) ([1]; 50 ppm essential oil component): very substantially fewer tubes supporting yeast growth | tubes supporting yeast growth compared with control without essential oil (FIG. 19) ([1]; 50 ppm essential oil component): very substantially fewer tubes supporting yeast growth

COC(C=C(C)CCC=C(C)C)OC [Citral dimethyl acetal]
concentration at which no mould growth was visible [2]: > 80 ppm | tubes supporting yeast growth compared with control without essential oil (FIG. 13) [1, 5]: very substantially fewer tubes supporting yeast growth | tubes supporting yeast growth compared with control without essential oil (FIG. 1) [1, 5]: very substantially fewer tubes supporting yeast growth | tubes supporting yeast growth compared with control without essential oil (FIG. 19) [1, 5]: very substantially fewer tubes supporting yeast growth | tubes supporting yeast growth compared with control without essential oil (FIG. 17) ([3]; benzoic acid 1-250 ppm): very substantially fewer tubes supporting yeast growth | tubes supporting yeast growth compared with control without essential oil (FIG. 11) ([3]; sorbic acid 1-250 ppm): very substantially fewer tubes supporting yeast growth | tubes supporting yeast growth compared with control without essential oil (FIG. 23) ([3]; sorbic acid+benzoic acid 1:1 1-250 ppm): very substantially fewer tubes supporting yeast growth

CC(C)=CCCC(C)=CC=O [Citral]
tubes supporting yeast growth compared with control without essential oil (FIG. 1) [1, 5]: very substantially fewer tubes supporting yeast growth

CC(C)c1ccc(CO)cc1 [Cumic alcohol]
tubes supporting yeast growth compared with control without essential oil (FIG. 1) [1, 5]: very substantially fewer tubes supporting yeast growth

CC1(C)C2CC=C(CO)C1C2 (stereo not shown) [Myrtenol]
tubes supporting yeast growth compared with control without essential oil (FIG. 1) [1, 5]: very substantially fewer tubes supporting yeast growth

CCCCCCCC(=O)O [Octanoic acid (caprylic)]
MIC (ppm) [4]: 115 ppm

CC(=O)OCc1ccc2c(c1)OCO2 [Piperonyl acetate]
tubes supporting yeast growth compared with control without essential oil (FIG. 1) [1, 5]: very substantially fewer tubes supporting yeast growth

CCCCC/C=C/C=C/C=O [trans,trans-2,4-Decadienal]
tubes supporting yeast growth compared with control without essential oil (FIG. 1) ([1]; 15 ppm essential oil component): very substantially fewer tubes supporting yeast growth

— patent US6761919B2, “Ambient stable beverage” (priority 2000, dated 2004)
